Laboratory results from article PMC5218480 (PLoS ONE, 2017).

Test system: MV-4-11 cells
Assay: Gene expression microarray analysis (Affymetrix PrimeView) and GSEA
Type: cell-based, human
Set-up: RFU PODN (11730768_x_at) / Fold change /veh PODN (11730768_x_at) / RFU LINC00158 (11744669_a_at) / Fold change /veh LINC00158 (11744669_a_at) / RFU DUSP10 (11751237_a_at) / Fold change /veh DUSP10 (11751237_a_at) / RFU ID3 (11757404_x_at) / Fold change /veh ID3 (11757404_x_at) / RFU PLEKHG5 (11737974_s_at) / Fold change /veh PLEKHG5 (11737974_s_at) / RFU LRRC4B (11730491_at) / Fold change /veh LRRC4B (11730491_at) / RFU GIMAP4 (11747438_a_at) / Fold change /veh GIMAP4 (11747438_a_at) / RFU KRT8 (11758183_x_at) / Fold change /veh KRT8 (11758183_x_at) / RFU CNN1 (11734310_a_at) / Fold change /veh CNN1 (11734310_a_at) / RFU VPS37D (11726825_at) / Fold change /veh VPS37D (11726825_at) / RFU C10orf10 (11716522_x_at) / Fold change /veh C10orf10 (11716522_x_at) / RFU KIR2DL2 /// KIR2DL4 /// KIR2DL5A /// KIR2DL5B /// KIR2DS1 /// KIR2DS2 /// KIR2DS3 /// KIR2DS4 /// KIR3DL3 /// KIR3DL3 /// KIR3DS1 (11738374_at) / Fold change /veh KIR2DL2 /// KIR2DL4 /// KIR2DL5A /// KIR2DL5B /// KIR2DS1 /// KIR2DS2 /// KIR2DS3 /// KIR2DS4 /// KIR3DL3 /// KIR3DL3 /// KIR3DS1 (11738374_at) / RFU C1QL1 (11718748_at) / Fold change /veh C1QL1 (11718748_at) / RFU TMPRSS4 (11747572_a_at) / Fold change /veh TMPRSS4 (11747572_a_at) / RFU HAMP (11756126_x_at) / Fold change /veh HAMP (11756126_x_at) / RFU RNFT2 (11725882_a_at) / Fold change /veh RNFT2 (11725882_a_at) / RFU NR4A2 (11747474_a_at) / Fold change /veh NR4A2 (11747474_a_at) / RFU ABCC12 (11746883_a_at) / Fold change /veh ABCC12 (11746883_a_at) / RFU TMEM136 (11760407_x_at) / Fold change /veh TMEM136 (11760407_x_at) / RFU CLDN22 /// WWC2 (11732394_at) / Fold change /veh CLDN22 /// WWC2 (11732394_at) / RFU HLA-DPB1 (11760878_x_at) / Fold change /veh HLA-DPB1 (11760878_x_at) / RFU SPINT1 (11716480_a_at) / Fold change /veh SPINT1 (11716480_a_at) / RFU GAP43 (11754022_s_at) / Fold change /veh GAP43 (11754022_s_at) / RFU A4GNT (11735810_at) / Fold change /veh A4GNT (11735810_at) / RFU PRB3 (11715151_x_at) / Fold change /veh PRB3 (11715151_x_at) / RFU TUBB4B (11761932_at) / Fold change /veh TUBB4B (11761932_at) / RFU CAPN14 (11732068_a_at) / Fold change /veh CAPN14 (11732068_a_at) / RFU TMCC2 (11721928_a_at) / Fold change /veh TMCC2 (11721928_a_at) / RFU IRGQ (11745062_a_at) / Fold change /veh IRGQ (11745062_a_at) / RFU FAM174B (11720279_a_at) / Fold change /veh FAM174B (11720279_a_at) / RFU TMPRSS4 (11748680_a_at) / Fold change /veh TMPRSS4 (11748680_a_at) / RFU FAM212B (11763350_a_at) / Fold change /veh FAM212B (11763350_a_at) / RFU PLEKHG5 (11743358_a_at) / Fold change /veh PLEKHG5 (11743358_a_at) / RFU ZSCAN30 (11745921_a_at) / Fold change /veh ZSCAN30 (11745921_a_at) / RFU CMKLR1 (11741424_a_at) / Fold change /veh CMKLR1 (11741424_a_at) / RFU LOC101060620 /// MAPK8IP1 (11723275_at) / Fold change /veh LOC101060620 /// MAPK8IP1 (11723275_at) / RFU SPTSSB (11747773_x_at) / Fold change /veh SPTSSB (11747773_x_at) / RFU PRSS12 (11739890_at) / Fold change /veh PRSS12 (11739890_at) / RFU BIN1 (11741810_x_at) / Fold change /veh BIN1 (11741810_x_at) / RFU WNT11 (11732464_a_at) / Fold change /veh WNT11 (11732464_a_at) / RFU C10orf10 (11716521_a_at) / Fold change /veh C10orf10 (11716521_a_at) / RFU C5orf56 (11738089_at) / Fold change /veh C5orf56 (11738089_at) / RFU CYB561 (11721691_x_at) / Fold change /veh CYB561 (11721691_x_at) / RFU ANKRD19P (11752326_a_at) / Fold change /veh ANKRD19P (11752326_a_at) / RFU OR2T12 /// OR2T33 /// OR2T8 (11738714_s_at) / Fold change /veh OR2T12 /// OR2T33 /// OR2T8 (11738714_s_at) / RFU VCAN (11748164_a_at) / Fold change /veh VCAN (11748164_a_at) / RFU JSRP1 (11732532_at) / Fold change /veh JSRP1 (11732532_at) / RFU KRTAP10-11 (11738290_x_at) / Fold change /veh KRTAP10-11 (11738290_x_at) / RFU MYO3A (11730013_a_at) / Fold change /veh MYO3A (11730013_a_at) / RFU EBF3 (11725865_a_at) / Fold change /veh EBF3 (11725865_a_at) / RFU CAMK2N1 (11719241_x_at) / Fold change /veh CAMK2N1 (11719241_x_at) / RFU C5orf56 (11738088_a_at) / Fold change /veh C5orf56 (11738088_a_at) / RFU OLFML3 (11715873_a_at) / Fold change /veh OLFML3 (11715873_a_at) / RFU LOC100653217 /// NTM (11731650_a_at) / Fold change /veh LOC100653217 /// NTM (11731650_a_at) / RFU MAPK11 (11762145_a_at) / Fold change /veh MAPK11 (11762145_a_at) / RFU FIZ1 (11724087_x_at) / Fold change /veh FIZ1 (11724087_x_at) / RFU OASL (11726364_x_at) / Fold change /veh OASL (11726364_x_at) / RFU SOX15 (11748057_x_at) / Fold change /veh SOX15 (11748057_x_at) / RFU CD79A (11719716_a_at) / Fold change /veh CD79A (11719716_a_at) / RFU HIST1H1D (11736915_at) / Fold change /veh HIST1H1D (11736915_at) / RFU CASKIN2 (11723855_a_at) / Fold change /veh CASKIN2 (11723855_a_at) / RFU LOC730098 (11760151_x_at) / Fold change /veh LOC730098 (11760151_x_at) / RFU OR4N2 (11742367_at) / Fold change /veh OR4N2 (11742367_at) / RFU PRRT2 (11749266_a_at) / Fold change /veh PRRT2 (11749266_a_at) / RFU SNX32 (11753110_a_at) / Fold change /veh SNX32 (11753110_a_at) / RFU CDHR5 (11726645_a_at) / Fold change /veh CDHR5 (11726645_a_at) / RFU RCAN1 (11760418_a_at) / Fold change /veh RCAN1 (11760418_a_at) / RFU FAM167A (11723789_a_at) / Fold change /veh FAM167A (11723789_a_at) / RFU FAM26E (11764081_at) / Fold change /veh FAM26E (11764081_at) / RFU ISYNA1 (11749810_s_at) / Fold change /veh ISYNA1 (11749810_s_at) / RFU ACY1 (11761880_at) / Fold change /veh ACY1 (11761880_at) / RFU 11764098_at / Fold change /veh 11764098_at / RFU SAMD14 (11745864_x_at) / Fold change /veh SAMD14 (11745864_x_at) / RFU NPB (11741838_a_at) / Fold change /veh NPB (11741838_a_at) / RFU TMPRSS6 (11731388_a_at) / Fold change /veh TMPRSS6 (11731388_a_at) / RFU KRTAP10-2 (11738614_at) / Fold change /veh KRTAP10-2 (11738614_at) / RFU ARHGAP8 /// PRR5-ARHGAP8 (11727945_x_at) / Fold change /veh ARHGAP8 /// PRR5-ARHGAP8 (11727945_x_at) / RFU KRTAP5-7 /// NADSYN1 (11734609_at) / Fold change /veh KRTAP5-7 /// NADSYN1 (11734609_at) / RFU RASL12 (11751679_a_at) / Fold change /veh RASL12 (11751679_a_at) / RFU CDKN2B (11736163_a_at) / Fold change /veh CDKN2B (11736163_a_at) / RFU PRF1 (11729649_at) / Fold change /veh PRF1 (11729649_at) / RFU, ZNF638 /// ZNF638-IT1 / Fold change vs veh, ZNF638 /// ZNF638-IT1 / RFU, PANK3 / Fold change vs veh, PANK3 / RFU, SH3YL1 / Fold change vs veh, SH3YL1 / RFU, ZEB2 / Fold change vs veh, ZEB2 / RFU, NRIP1 / Fold change vs veh, NRIP1 / RFU, PTTG1IP / Fold change vs veh, PTTG1IP / RFU, CAPN2 / Fold change vs veh, CAPN2 / RFU, MED14 / Fold change vs veh, MED14 / RFU, SNORA58 / Fold change vs veh, SNORA58 / RFU, C1orf63 / Fold change vs veh, C1orf63 / RFU, LRRFIP1 / Fold change vs veh, LRRFIP1 / RFU, NDUFAF7 / Fold change vs veh, NDUFAF7 / RFU, SLC12A2 / Fold change vs veh, SLC12A2 / RFU, IBTK / Fold change vs veh, IBTK / RFU, ESF1 / Fold change vs veh, ESF1 / Fold change vs veh, TMEM50B / RFU, TAOK1 / Fold change vs veh, TAOK1 / RFU, ACBD3 / Fold change vs veh, ACBD3 / RFU, TMA16 / Fold change vs veh, TMA16 / RFU, RWDD3 / Fold change vs veh, RWDD3 / RFU, BCAT1 / Fold change vs veh, BCAT1 / RFU, EDEM3 / Fold change vs veh, EDEM3 / RFU, TMEM33 / Fold change vs veh, TMEM33 / RFU, WDR75 / Fold change vs veh, WDR75 / RFU, AHCTF1 / Fold change vs veh, AHCTF1 / RFU, TFRC / Fold change vs veh, TFRC / RFU, ZDHHC17 / Fold change vs veh, ZDHHC17 / RFU, NOM1 / Fold change vs veh, NOM1 / RFU, ARL8B / Fold change vs veh, ARL8B / RFU, ZBTB11 / Fold change vs veh, ZBTB11 / RFU, TAMM41 / Fold change vs veh, TAMM41 / RFU, KIAA1704 /// LOC100996395 / Fold change vs veh, KIAA1704 /// LOC100996395 / RFU, ING1 / Fold change vs veh, ING1 / RFU, TRMT61B / Fold change vs veh, TRMT61B / RFU, FUBP3 / Fold change vs veh, FUBP3 / RFU, TP53 / Fold change vs veh, TP53 / RFU, TNKS2 / Fold change vs veh, TNKS2 / RFU, ZFP14 / Fold change vs veh, ZFP14 / RFU, ACTR2 / Fold change vs veh, ACTR2 / RFU, PPP3R1 / Fold change vs veh, PPP3R1 / RFU, PIK3R1 / Fold change vs veh, PIK3R1 / RFU, HNRNPA1 / Fold change vs veh, HNRNPA1 / RFU, RNF170 / Fold change vs veh, RNF170 / RFU, ZNF28 / Fold change vs veh, ZNF28 / RFU, RNGTT / Fold change vs veh, RNGTT / RFU, OGT / Fold change vs veh, OGT / RFU, BRD1 / Fold change vs veh, BRD1 / RFU, MARS / Fold change vs veh, MARS / RFU, ZNF655 / Fold change vs veh, ZNF655 / RFU, FAHD1 / Fold change vs veh, FAHD1 / RFU, BDP1 / Fold change vs veh, BDP1 / RFU, LRRCC1 / Fold change vs veh, LRRCC1 / RFU, ARID1A / Fold change vs veh, ARID1A / RFU, ZNF146 / Fold change vs veh, ZNF146 / RFU, ZNF330 / Fold change vs veh, ZNF330 / RFU, GPN3 / Fold change vs veh, GPN3 / RFU, C9orf123 / Fold change vs veh, C9orf123 / RFU, N4BP2L2 / Fold change vs veh, N4BP2L2 / RFU, ARFIP1 / Fold change vs veh, ARFIP1 / RFU, FAM179B / Fold change vs veh, FAM179B / RFU, BCL10 / Fold change vs veh, BCL10 / RFU, UHRF1BP1L / Fold change vs veh, UHRF1BP1L / RFU, BET1 / Fold change vs veh, BET1 / RFU, CNOT2 / Fold change vs veh, CNOT2 / RFU, ZNF268 / Fold change vs veh, ZNF268 / Fold change vs veh, ZNF507 / RFU, DGCR2 / Fold change vs veh, DGCR2 / RFU, WDSUB1 / Fold change vs veh, WDSUB1 / Fold change vs veh, HSP90B1 /// MIR3652 / RFU, ADSS / Fold change vs veh, ADSS / RFU, GK / Fold change vs veh, GK / RFU, ZNF148 / Fold change vs veh, ZNF148 / RFU, TAF9 / Fold change vs veh, TAF9 / RFU, SLC1A5 / Fold change vs veh, SLC1A5 / RFU, SLMO2 / Fold change vs veh, SLMO2 / RFU, ABCC4 / Fold change vs veh, ABCC4 / RFU, LOC101060439 /// RAP1B / Fold change vs veh, LOC101060439 /// RAP1B / RFU, RFX7 / Fold change vs veh, RFX7 / RFU, GTPBP10 / Fold change vs veh, GTPBP10 / RFU, CNEP1R1 / Fold change vs veh, CNEP1R1 / RFU, BIVM-ERCC5 /// ERCC5 / Fold change vs veh, BIVM-ERCC5 /// ERCC5 / RFU, ILF3 / Fold change vs veh, ILF3 / RFU 11762660_at / Fold change /veh 11762660_at / RFU VCAN (11757783_s_at) / Fold change /veh VCAN (11757783_s_at) / RFU DDX43 (11728927_at) / Fold change /veh DDX43 (11728927_at) / RFU KRT8 (11758188_x_at) / Fold change /veh KRT8 (11758188_x_at) / RFU NKD1 (11759106_at) / Fold change /veh NKD1 (11759106_at) / RFU SRD5A1 (11742802_a_at) / Fold change /veh SRD5A1 (11742802_a_at) / RFU TPSAB1 /// TPSB2 (11721975_s_at) / Fold change /veh TPSAB1 /// TPSB2 (11721975_s_at) / RFU GSTM3 (11746129_a_at) / Fold change /veh GSTM3 (11746129_a_at) / RFU IL23R (11737362_x_at) / Fold change /veh IL23R (11737362_x_at) / RFU TMEM51 (11727254_a_at) / Fold change /veh TMEM51 (11727254_a_at) / RFU PIWIL2 (11732686_x_at) / Fold change /veh PIWIL2 (11732686_x_at) / RFU ORM1 (11744905_x_at) / Fold change /veh ORM1 (11744905_x_at) / RFU CCDC152 (11743942_at) / Fold change /veh CCDC152 (11743942_at) / RFU ECM1 (11717891_a_at) / Fold change /veh ECM1 (11717891_a_at) / RFU IL23R (11748794_a_at) / Fold change /veh IL23R (11748794_a_at) / RFU TNFAIP8L3 (11732012_x_at) / Fold change /veh TNFAIP8L3 (11732012_x_at) / RFU MBOAT4 (11741988_at) / Fold change /veh MBOAT4 (11741988_at) / RFU 11764193_at / Fold change /veh 11764193_at / RFU TMEM53 (11763286_at) / Fold change /veh TMEM53 (11763286_at) / RFU MAGEB2 (11727129_at) / Fold change /veh MAGEB2 (11727129_at) / RFU TMEM200A (11744735_a_at) / Fold change /veh TMEM200A (11744735_a_at) / RFU CCDC152 (11751479_a_at) / Fold change /veh CCDC152 (11751479_a_at) / RFU FAM211A (11726209_a_at) / Fold change /veh FAM211A (11726209_a_at) / RFU RGS16 (11746705_a_at) / Fold change /veh RGS16 (11746705_a_at) / RFU VCAN (11755009_s_at) / Fold change /veh VCAN (11755009_s_at) / RFU RHOB (11743442_s_at) / Fold change /veh RHOB (11743442_s_at) / RFU RGS16 (11720943_a_at) / Fold change /veh RGS16 (11720943_a_at) / RFU RGS16 (11720944_at) / Fold change /veh RGS16 (11720944_at) / RFU, VPS4B / Fold change vs veh, VPS4B / RFU, CREB1 / Fold change vs veh, CREB1 / RFU, DNAJC13 / Fold change vs veh, DNAJC13 / RFU, GNAQ / Fold change vs veh, GNAQ / RFU, CDK5R1 / Fold change vs veh, CDK5R1 / RFU, ZRANB3 / Fold change vs veh, ZRANB3 / RFU, CUL4A / Fold change vs veh, CUL4A / RFU, CCNY / Fold change vs veh, CCNY / RFU, UFL1 / Fold change vs veh, UFL1 / RFU, COG3 / Fold change vs veh, COG3 / RFU, DIAPH2 / Fold change vs veh, DIAPH2 / RFU, SKA2 / Fold change vs veh, SKA2 / RFU, AFF3 / Fold change vs veh, AFF3 / RFU, LMF1 / Fold change vs veh, LMF1 / RFU, IPO11 / Fold change vs veh, IPO11 / RFU, DFFB / Fold change vs veh, DFFB / RFU, FOXP1 / Fold change vs veh, FOXP1 / RFU, CARD8 / Fold change vs veh, CARD8 / RFU, STRN3 / Fold change vs veh, STRN3 / RFU, ADK / Fold change vs veh, ADK / RFU, RASSF2 / Fold change vs veh, RASSF2 / RFU, WIPF1 / Fold change vs veh, WIPF1 / RFU, LARP1B / Fold change vs veh, LARP1B / RFU, RASA1 / Fold change vs veh, RASA1 / RFU, RB1 / Fold change vs veh, RB1 / RFU, PPFIA1 / Fold change vs veh, PPFIA1 / RFU, MAT2A / Fold change vs veh, MAT2A / RFU, CCT5 / Fold change vs veh, CCT5 / RFU, WDR92 / Fold change vs veh, WDR92 / RFU, CUX1 / Fold change vs veh, CUX1 / RFU, TTC7A / Fold change vs veh, TTC7A / RFU, TMEM135 / Fold change vs veh, TMEM135 / RFU, DEPTOR / Fold change vs veh, DEPTOR / RFU, CPM / Fold change vs veh, CPM / RFU, DNAJB6 / Fold change vs veh, DNAJB6 / RFU, CACNA2D3 / Fold change vs veh, CACNA2D3 / RFU, DTX4 / Fold change vs veh, DTX4 / RFU, TFCP2 / Fold change vs veh, TFCP2 / RFU, GMCL1 /// GMCL1P1 / Fold change vs veh, GMCL1 /// GMCL1P1 / RFU, AEBP2 / Fold change vs veh, AEBP2 / RFU, SNHG1 /// SNORD22 /// SNORD25 /// SNORD26 /// SNORD27 /// SNORD28 /// SNORD29 /// SNORD31 / Fold change vs veh, SNHG1 /// SNORD22 /// SNORD25 /// SNORD26 /// SNORD27 /// SNORD28 /// SNORD29 /// SNORD31 / Fold change (Aza/veh), C12orf56 (ProbeSet 11735607_a_at) / Fold change (ACY-1035/veh), C12orf56 (ProbeSet 11735607_a_at) / Fold change (Aza/veh), FGFR1OP (ProbeSet 11751329_s_at) / Fold change (ACY-1035/veh), FGFR1OP (ProbeSet 11751329_s_at) / Fold change (Aza/veh), VPS36 (ProbeSet 11739960_a_at) / Fold change (ACY-1035/veh), VPS36 (ProbeSet 11739960_a_at) / RFU SYPL1 (11715823_x_at) / Fold change /veh SYPL1 (11715823_x_at) / RFU IGFBP7 (11715501_s_at) / Fold change /veh IGFBP7 (11715501_s_at) / RFU REEP3 (11722064_at) / Fold change /veh REEP3 (11722064_at) / RFU IGLL1 (11728026_x_at) / Fold change /veh IGLL1 (11728026_x_at): dose or concentration left out as unconfirmed
Details: ProbeSet 11762504_a_at; LIST D

## Nc1ccc(-c2cccs2)cc1NC(=O)c1ccc2c(c1)cc(C1CC1)n2CCN1CCOCC1 [ACY-1035]
  Fold change vs veh, ZRANB3: 0.86
